From patent US20100273750A1, “SEROTONIN RECEPTOR ANTAGONISTS FOR TREATING ARTHRITIS” (IMPERIAL INNOVATIONS LIMITED, priority 2007, published 2010)
Entries after “also recorded” stand apart in the source; their conditions may differ. Structures can show the parent of a compound that is named as a salt.

Columns and labels:
[1] = system: TLR4 ligand LPS induced TNF; assay: LPS induced TNF production in primary human macrophages (ELISA); type: cell-based; details: 30 μg/ml, 30 minutes preincubation, 10 ng/ml LPS for 6 hours; hydrochloride
Experimental: (§1) Macrophages or RA synovial membrane cell cultures were stimulated with 10 ng/ml chloroform-extracted LPS, 10 ng/ml Pam3, 10 ng/ml Flagellin, 10 ng/ml Malp-2, 20 μg/ml poly IC, 2 μM CpG (human/mouse) or 1 μg/ml R-848 in complete media for 6 h. Supernatants from RA cultures were harvested after 24 hours. All reagents other than LPS were free from LPS contamination as assessed using the limulus amebocyte lysate (LAL) assay from Cambrex (USA).
(§2) Sandwich ELISAs were employed to measure TNF, (Pharmingen, UK). IP-10 (R&D, USA) and IL-1β (Bioscource. USA). Absorbance was read on a spectrophotometric ELISA plate reader (Labsystems Multiscan Biochromic) and analyzed using Ascent software V2.6 (Thermo Labsystems, Cambridge, United Kingdom). All results are expressed as the mean cytokine concentration±SD obtained from triplicate cultures per condition.
(§3) RA synovial membrane cells were isolated from patients undergoing joint replacement surgery as previously described (Foxwell et al., Proc. Natl. Acad. Sci. USA 95, 8211-8215, 1998). All patients gave written informed consent and the study was approved by the local ethics committee. Immediately after isolation, cells were used for mRNA analysis, stained by FACS or cultured at 1×10^5 cells/well in 96-well tissue culture plates (Falcon, UK) in RPMI 1640 containing 10% (v/v) FBS and 100 U/ml penicillin/streptomycin. Primary human synovial fibroblasts were cultured as described previously (Butler et al. Eur. Cytokine Netw. 5:441-8, 1994). Peripheral blood monocytes were isolated and cultured as previously described (Foxwell et al. Proc. Natl. Acad. Sci. USA 95, 8211-8215, 1998). Macrophages were derived from monocytes after differentiation for 4 days with 100 ng/ml M-CSF (PeproTech, UK). The mouse macrophage cell line RAW 264.7 was maintained in Dulbecco's modified Eagle's medium supplemented with 10% fetal bovine serum.
Primary human macrophages, murine RAW 264.7 cells and synovial fibroblasts were incubated with 30 μg/ml mianserine hydrochloride for 30 minutes and then stimulated for 6 hours with TLR ligands (R-848, Pam3, LPS, flagellin, malp-2, poly IC or CpG).

[2] = system: RA synovial membrane cultures; assay: Spontaneous cytokine release from RA synovial membrane cultures (ELISA); type: cell-based, human
Experimental: as §1, with “hours.” for “hours. All reagents other than LPS were free from LPS contamination as assessed using the limulus amebocyte lysate (LAL) assay from Cambrex (USA).”
as §2, §3
Rheumatoid arthritis synovial membrane cells were cultured for 24 hours in the presence of media alone or media containing 30 μg/ml mianserine hydrochloride. Supernatants were harvested and levels of cytokines (A) TNF (n=16) were measured by ELISA. […] A students paired t-test was used to analyse the data.

[3] = system: TLR9 ligand CpG induced TNF; assay: CpG induced TNF production in murine RAW 264.7 macrophages (ELISA); type: cell-based; details: 30 μg/ml, 30 minutes preincubation, CpG for 6 hours, RAW 264.7, n=2
Experimental: as §1, §2
(§4) RA synovial membrane cells were isolated from patients undergoing joint replacement surgery as previously described (Foxwell et al., Proc. Natl. Acad. Sci. USA 95, 8211-8215, 1998). All patients gave written informed consent and the study was approved by the local ethics committee. Immediately after isolation, cells were used for mRNA analysis, stained by FACS or cultured at 1×10^5 cells/well in 96-well tissue culture plates (Falcon, UK) in RPMI 1640 containing 10% (v/v) FBS and 100 U/ml penicillin/streptomycin. […]

[4] = system: LPS induced NF-κB activation (TLR4); assay: NF-κB luciferase reporter assay in synovial fibroblasts stimulated with LPS; type: cell-based, human; details: 30 μg/ml, 30 minutes preincubation, 10 ng/ml LPS for 6 h, n=3
Experimental: (§5) Synovial fibroblasts were cultured in a 96-well plate, infected with recombinant adenovirus containing a NF-κB Luciferase reporter gene at a MOI of 200:1. The cells were allowed to rest for 24 h prior to stimulation. Cells were preincubated with 30 μg/ml mianserine hydrochloride for 30 minutes, then stimulated with 10 ng/ml LPS or 20 μg/ml Poly IC for 6 h. The cells were then washed once in PBS and lysed with 100 μl of CAT lysis buffer (0.65% (v/v) of Nonidet P-40, 10 mM Tris-HCl pH 8, 0.1 mM EDTA pH 8, 150 mM NaCl). 50 μl of cell lysate were mixed with 120 μl luciferase assay buffer (25 mM Tris-phosphate pH 7.8, 8 mM MgCl2, 1 mM EDTA, 1% (v/v) Triton X-100, 1% (v/v) glycerol, 1 mM DTT, 0.5 mM ATP) in the well of a luminometer cuvette strip. Luciferase activity was measured with a Luminometer (Thermo Labsystems, U.K.) by adding […] of luciferin (Bright-Glo luciferase assay system; Promega, Madison, Wis.) per assay point.
(§6) RA synovial membrane cells were isolated from patients undergoing joint replacement surgery as previously described (Foxwell et al., Proc. Natl. Acad. Sci. USA 95, 8211-8215, 1998). All patients gave written informed consent and the study was approved by the local ethics committee. […]

[5] = system: TLR3 induced NF-κB activation; assay: NF-κB luciferase reporter assay in synovial fibroblasts stimulated with poly IC; type: cell-based, human; details: 30 μg/ml, 30 minutes preincubation, 20 μg/ml Poly IC for 6 h, n=3
Experimental: as §5, §6

[6] = system: TLR7/8 ligand R-848 induced TNF; assay: R-848 induced TNF production in primary human macrophages (ELISA)
[7] = system: CIA model of rheumatoid arthritis; assay: Murine CIA model of rheumatoid arthritis; type: in vivo, Male DBA mice
Experimental: Male DBA mice (8-10 weeks of age) were immunized at the base of the tail intradermally with 200 μg type II collagen emulsified in CFA (Difco Laboratories, West Molesey, U.K.). The onset of arthritis was considered to be the day that erythema and/or swelling were first observed, and arthritic mice were given a daily clinical score per limb from 0 to 3, with 0=normal, 1=slight erythema and swelling, 2=pronounced edematous swelling and 3=joint deformity with ankylosis, resulting in a maximum score of 12 per animal. Mianserine treatment started on the day of onset and was administered daily for 7 days. Paw swelling was assessed by measuring hind paw thickness using calipers.
The experiment was started at the onset of arthritis (day 1). Mice were given an interperitoneal injection of vehicle (PBS), 4 mg/kg or 10 mg/kg of mianserine hydrochloride once a day for 7 days. Mice were assessed for (FIG. 2A) clinical score and (FIG. 2B) paw swelling on a daily basis.

[8] = system: TLR3 ligand poly IC induced IP-10; assay: Poly IC induced IP-10 production in human macrophages (ELISA); type: cell-based; details: 30 μg/ml, 20 μg/ml poly IC for 6 hours; hydrochloride
Experimental: as §1, §2, §3
Primary human macrophages were incubated with 5 μg/ml of GBR12909, 5 μg/ml of clotrimazole, 5 μg/ml of Propidium iodide (PI), 30 μg/ml mianserine hydrochloride and 30 μg/ml promazine hydrochloride for 30 minutes and then stimulated for 6 hours with the TLR4 ligand LPS (FIG. 7A), with R848 a TLR7/8 ligand (FIG. 7, Graph B), or with poly IC a TLR3 ligand (FIG. 7C). Supernatants were collected and measured for TNF or IP-10.

[9] = system: TLR ligands Pam3, flagellin, Malp-2 induced TNF; assay: Pam3, flagellin or Malp-2 induced TNF production in primary human macrophages (ELISA); type: cell-based; details: 30 μg/ml, 30 minutes preincubation
Experimental: as §1, §2, §4

[10] = system: RA synovial membrane cultures; assay: Spontaneous cytokine release from RA synovial membrane cultures (ELISA); type: cell-based, human; details: 24 hours
[11] = 4 mg/kg interperitoneal once a day for 7 days
[12] = 10 mg/kg interperitoneal once a day for 7 days

inhibition of TLR3 induced NF-κB activation [5]: significantly inhibit
Structure (SMILES): CN1CCN2c3ccccc3Cc3ccccc3C2C1 (stereo not shown) [mianserine hydrochloride]
inhibition of LPS induced TNF production [1]: not and None of the drugs tested were able to inhibit
inhibition of TNF, dose dependence ([2]; 10 μg/ml, 20 μg/ml and 30 μg/ml): dose dependently inhibited
inhibition of spontaneous TNF production ([2]; 30 μg/ml, 24 hours): able to inhibit
decrease in the levels of TNF ([2]; 30 μg/ml, 24 hours, n=16, p=0.0007): 59%±13
inhibition of CpG induced TNF production [3]: able to inhibit TNF production
effect on LPS induced NF-κB activation [4]: no effect
inhibitory effect on TNF production at rising R-848 ([6]; 5 μg/ml with 0.3, 1, 10 or 20 μg/ml R-848, 6 hours): diminished with increasing concentrations of R-848
inhibition of R-848 induced TNF production ([6]; 30 μg/ml, 30 minutes preincubation, 1 μg/ml R-848 for 6 hours, hydrochloride): decreased production of TNF; also recorded: able to suppress
mode of inhibition of R-848 induced TNF production ([6]; 2.5, 5 or 10 μg/ml with 0.3, 1, 10 or 20 μg/ml R-848, 6 hours, three donors): competitively inhibits
clinical score [7, 11]: did not produce as great an effect as the 10 mg/kg group
hind paw swelling [7, 11]: no significant improvement
histology scoring [7, 11]: an improvement in the score
hind paw swelling [7, 12]: significant improvement throughout the study
histology scoring [7, 12]: significant effect
histology of hind paws: bone destruction and cell infiltration ([7]; interperitoneal once a day for 7 days): clear reduction in both bone destruction and cell infiltration into the joint
clinical score ([7]; interperitoneal once a day for 7 days from onset, statistics for 10 mg/kg group versus vehicle, n=7): significant improvement to the control group from day 3 onwards
inhibition of Poly IC induced IP-10 production [8]: inhibits TLR3 induced signalling; also recorded: able to inhibit
decreased production of TNF in response to Malp-2 ([9]; Malp-2 for 6 hours): not
decreased production of TNF in response to flagellin ([9]; flagellin for 6 hours): not
inhibition of spontaneous TNF production ([10]; 20 μg/ml): able to inhibit
decrease of TNF levels (positive control) [10]: able to decrease the TNF levels
